In test [1] the target is human E3 ligase component cereblon (CRBN) (Homo sapiens (Human), UniProt Q96SW2). The experiment in a line: Cereblon (CRBN) target engagement, NanoBRET TE Intracellular E3 Ligase Assay in transfected HEK-293T cells. The note with it: read-out: CRBN Binding EC50. In outline:
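Live HEK-293T cells co-transfected overnight with NanoLuc-CRBN (CRBN at NanoLuc C-terminus) and DDB1 vectors (10:990 ng) were given CRBN tracer and an 11-point compound series for 2 h at 37° C. BRET read at 450/610 nm with extracellular NanoLuc inhibitor present; IC50 from four-parameter logistic fit.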

The subject of a further test is IKZF2 (Helios). Put plainly: IKZF2 reporter degradation assay (HEK 293T IKZF2-mNeonGreen reporter cell line). The test is classed as cell-based, human. The note with it: 1 μM compound, 24 hour incubation, HEK 293T IKZF2-mNeonGreen reporter. In outline: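 HEK 293T lines stably expressing each IKZF-GGGGS×3-mNeonGreen-P2A-mScarlet reporter, 4000 cells/well in FluoroBrite medium, treated with compound (≤0.5% DMSO) for 24 h at 37 °C. Imaging measured percent mNeonGreen-positive cells, with mScarlet used for segmentation; DC50 from four-parameter logistic fit.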

Sequence of human E3 ligase component cereblon (CRBN) (Q96SW2 whole entry): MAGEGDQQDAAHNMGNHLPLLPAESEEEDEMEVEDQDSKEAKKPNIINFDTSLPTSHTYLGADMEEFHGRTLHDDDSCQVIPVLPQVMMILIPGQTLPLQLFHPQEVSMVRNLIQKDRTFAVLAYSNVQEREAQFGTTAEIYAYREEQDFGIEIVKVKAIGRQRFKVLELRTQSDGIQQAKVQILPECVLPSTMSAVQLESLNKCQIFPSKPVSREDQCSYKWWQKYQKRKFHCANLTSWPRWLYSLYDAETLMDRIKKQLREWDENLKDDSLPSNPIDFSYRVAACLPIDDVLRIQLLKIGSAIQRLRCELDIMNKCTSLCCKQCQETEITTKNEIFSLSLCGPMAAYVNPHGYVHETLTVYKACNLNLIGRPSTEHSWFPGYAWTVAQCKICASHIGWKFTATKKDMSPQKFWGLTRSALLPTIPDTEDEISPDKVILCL
Sequence of human E3 ligase component cereblon (CRBN) (Q16531 whole entry partner): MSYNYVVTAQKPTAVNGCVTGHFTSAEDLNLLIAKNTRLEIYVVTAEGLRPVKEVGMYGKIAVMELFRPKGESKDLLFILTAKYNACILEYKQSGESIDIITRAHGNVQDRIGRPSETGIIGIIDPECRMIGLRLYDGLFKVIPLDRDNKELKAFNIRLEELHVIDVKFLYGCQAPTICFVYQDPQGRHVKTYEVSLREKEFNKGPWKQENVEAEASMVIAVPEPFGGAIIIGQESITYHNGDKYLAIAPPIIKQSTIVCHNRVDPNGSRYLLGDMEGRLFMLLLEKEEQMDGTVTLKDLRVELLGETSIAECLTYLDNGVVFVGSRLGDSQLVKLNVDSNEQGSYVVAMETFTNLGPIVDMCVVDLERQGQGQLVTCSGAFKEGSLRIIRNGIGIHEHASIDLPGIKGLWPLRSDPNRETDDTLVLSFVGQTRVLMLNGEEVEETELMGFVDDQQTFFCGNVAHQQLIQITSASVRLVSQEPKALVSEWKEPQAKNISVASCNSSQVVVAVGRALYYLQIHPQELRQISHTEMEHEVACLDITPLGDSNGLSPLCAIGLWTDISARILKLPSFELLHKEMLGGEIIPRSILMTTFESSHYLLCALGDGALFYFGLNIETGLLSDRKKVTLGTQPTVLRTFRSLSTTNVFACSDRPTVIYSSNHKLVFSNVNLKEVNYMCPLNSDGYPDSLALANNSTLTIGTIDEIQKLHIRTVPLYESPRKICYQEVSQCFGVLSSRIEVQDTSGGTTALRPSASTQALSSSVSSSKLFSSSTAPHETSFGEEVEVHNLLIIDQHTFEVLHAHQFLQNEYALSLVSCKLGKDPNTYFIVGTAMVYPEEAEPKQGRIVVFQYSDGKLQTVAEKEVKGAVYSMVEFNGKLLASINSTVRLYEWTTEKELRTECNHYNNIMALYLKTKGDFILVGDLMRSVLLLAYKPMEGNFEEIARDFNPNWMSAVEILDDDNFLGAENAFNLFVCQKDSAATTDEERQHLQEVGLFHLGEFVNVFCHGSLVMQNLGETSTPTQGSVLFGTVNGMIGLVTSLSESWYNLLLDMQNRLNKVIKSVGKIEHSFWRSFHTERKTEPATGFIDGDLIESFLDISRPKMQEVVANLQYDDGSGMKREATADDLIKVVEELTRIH

On to `O=C1CCC(N2Cc3cc(O[C@H]4CCCCC[C@@H]4N4CC(c5ccccc5)C4)ccc3C2=O)C(=O)N1` (stereo partly drawn) [Compound 131, 3-(1-oxo-5-(((1S,2S)-2-(3-phenylazetidin-1-yl)cycloheptyl)oxy)isoindolin-2-yl)piperidine-2,6-dione], for which the concentration for a half-maximal effect (EC50) in test [1] came to 11 nM. In addition, the “IKZF2 % Degradation @ 1 μM” value in the test with IKZF2 (Helios) is on record as 92.3%.

Consider `O=C1CCC(N2Cc3cc(O[C@H]4CCCC[C@@H]4N4CC(c5ccccc5)C4)c(F)cc3C2=O)C(=O)N1` (single isomer, unassigned) [Compound 52], for which, in test [1], the EC50 was found to be 11 nM. In the test with IKZF2 (Helios), the “IKZF2 % Degradation @ 1 μM” value was determined as 90.5%.

As for `O=C1CCC(N2Cc3cc(O[C@H]4CCCC[C@@H]4N4CC(c5cccc(OC(F)(F)F)c5)C4)ccc3C2=O)C(=O)N1` (stereo partly drawn) [Compound 35, 3-(1-oxo-5-(((1S,2S)-2-(3-(3-(trifluoromethoxy)phenyl)azetidin-1-yl)cyclohexyl)oxy)isoindolin-2-yl)piperidine-2,6-dione], the EC50 in test [1] came out at 17 nM. In the test with IKZF2 (Helios), the “IKZF2 % Degradation @ 1 μM” value is listed as 84.6%.

Consider `O=C1CCC(N2Cc3cc(O[C@H]4CCCC[C@@H]4N4CC(c5ccc(N6CCOCC6)cc5)C4)ccc3C2=O)C(=O)N1` (stereo partly drawn) [Compound 124, 3-(5-(((1S,2S)-2-(3-(4-morpholinophenyl)azetidin-1-yl)cyclohexyl)oxy)-1-oxoisoindolin-2-yl)piperidine-2,6-dione], for which the EC50 in test [1] amounted to 2 nM. In addition, the “IKZF2 % Degradation @ 1 μM” value with IKZF2 (Helios) amounted to 70.2%.

With `O=C1CCC(N2Cc3cc(O[C@H]4CCCC[C@@H]4N4CC(c5ccccc5OC(F)(F)F)C4)ccc3C2=O)C(=O)N1` (stereo partly drawn) [Compound 36, 3-(1-oxo-5-(((1S,2S)-2-(3-(2-(trifluoromethoxy)phenyl)azetidin-1-yl)cyclohexyl)oxy)isoindolin-2-yl)piperidine-2,6-dione], the EC50 in test [1] was determined as 31 nM. In addition, in the test with IKZF2 (Helios), the “IKZF2 % Degradation @ 1 μM” value is 82.3%.

Consider `O=C1CC[C@@H](N2Cc3cc(O[C@H]4CCCC[C@@H]4N4CC(c5ccccc5)C4)ccc3C2=O)C(=O)N1` [Compound 125, (R)-3-(1-oxo-5-(((1S,2S)-2-(3-phenylazetidin-1-yl)cyclohexyl)oxy)isoindolin-2-yl)piperidine-2,6-dione], for which the EC50 in test [1] amounted to 6 nM. Besides, in the test on IKZF2 (Helios), the “IKZF2 % Degradation @ 1 μM” value stood at 83.2%.

As to `O=C1CCC(N2Cc3cc(O[C@H]4CCCC[C@@H]4N4CC(c5ccccc5O)C4)ccc3C2=O)C(=O)N1` (stereo partly drawn) [Compound 133, 3-(5-(((1S,2S)-2-(3-(2-hydroxyphenyl)azetidin-1-yl)cyclohexyl)oxy)-1-oxoisoindolin-2-1)piperidine-2,6-dione], in test [1], the EC50 stood at 14 nM. Further, the “IKZF2 % Degradation @ 1 μM” value with IKZF2 (Helios) is 56.4%.

With `O=C1CCC(N2Cc3cc(O[C@H]4CCCC[C@@H]4N4CC(c5ccc(O)cc5)C4)ccc3C2=O)C(=O)N1` (stereo partly drawn) [Compound 132, 3-(5-(((1S,2S)-2-(3-(4-hydroxyphenyl)azetidin-1-yl)cyclohexyl)oxy)-1-oxoisoindolin-2-yl)piperidine-2,6-dione], in test [1], the concentration for a half-maximal effect (EC50) is 11 nM. Also, the “IKZF2 % Degradation @ 1 μM” value in the test with IKZF2 (Helios) is recorded as 77.2%.

As to `O=C1CCC(N2Cc3cc(O[C@H]4CCCC[C@@H]4N4CC(c5cccc(F)c5F)C4)ccc3C2=O)C(=O)N1` (stereo partly drawn) [Compound 64, 3-(5-(((1S,2S)-2-(3-(2,3-difluorophenyl)azetidin-1-yl)cyclohexyl)oxy)-1-oxoisoindolin-2-yl)piperidine-2,6-dione], in test [1], the EC50 worked out at 11 nM. The “IKZF2 % Degradation @ 1 μM” value with IKZF2 (Helios) was determined as 76.3%.

For `O=C1CCC(N2Cc3c(ccc(O[C@H]4CCCC[C@@H]4N4CC(c5ccccc5)C4)c3F)C2=O)C(=O)N1` (single isomer, unassigned) [Compound 66], the EC50 in test [1] was 24 nM. In addition, in the test on IKZF2 (Helios), the “IKZF2 % Degradation @ 1 μM” value came out at 74.8%.

For the molecule `O=C1CCC(N2Cc3cc(O[C@H]4CCCC[C@@H]4N4CC(c5ccc(F)cc5)C4)ccc3C2=O)C(=O)N1` (single isomer, unassigned) [Compound 50], the EC50 in test [1] came to 4 nM. Moreover, the “IKZF2 % Degradation @ 1 μM” value in the test on IKZF2 (Helios) was 73.6%.

Turning to `O=C1CCC(N2Cc3c(ccc(O[C@H]4CCCC[C@@H]4N4CC(c5ccccc5)C4)c3F)C2=O)C(=O)N1` (single isomer, unassigned) [Compound 65], in test [1], the EC50 was determined as 52 nM. Further, the “IKZF2 % Degradation @ 1 μM” value in the test with IKZF2 (Helios) is recorded as 75.1%.

Regarding `N#Cc1cc(Cl)ccc1C1CN([C@@H]2CCCC[C@@H]2Oc2ccc3c(c2)CN(C2CCC(=O)NC2=O)C3=O)C1` (mixture of isomers) [Compound 100, Rac-5-chloro-2-(1-((cis)-2-((2-(2,6-dioxopiperidin-3-yl)-1-oxoisoindolin-5-yl)oxy)cyclohexyl)azetidin-3-yl)benzonitrile], in test [1], the EC50 came to 25 nM. Besides, in the test with IKZF2 (Helios), the “IKZF2 % Degradation @ 1 μM” value is listed as less than 15%.

With `O=C1CCC(N2Cc3cc(O[C@H]4CCCC[C@@H]4N4CC(c5cccc(O)c5)C4)ccc3C2=O)C(=O)N1` (stereo partly drawn) [Compound 134, 3-(5-(((1S,2S)-2-(3-(3-hydroxyphenyl)azetidin-1-yl)cyclohexyl)oxy)-1-oxoisoindolin-2-yl)piperidine-2,6-dione], in test [1], the EC50 was 12 nM. Moreover, the “IKZF2 % Degradation @ 1 μM” value with IKZF2 (Helios) is listed as 75%.

`O=C1CCC(N2Cc3cc(O[C@H]4CCCC[C@@H]4N4CC(c5cccc(F)c5)C4)ccc3C2=O)C(=O)N1` (stereo partly drawn) [Compound 111, 3-(5-(((1S,2S)-2-(3-(3-fluorophenyl)azetidin-1-yl)cyclohexyl)oxy)-1-oxoisoindolin-2-yl)piperidine-2,6-dione]: the EC50 in test [1] amounted to 6 nM. In addition, in the test with IKZF2 (Helios), the “IKZF2 % Degradation @ 1 μM” value worked out at 76.5%.

On to `O=C1CCC(N2Cc3cc(O[C@H]4CCCC[C@@H]4N4CC(c5ccccc5C(F)(F)F)C4)ccc3C2=O)C(=O)N1` (stereo partly drawn) [Compound 129, 3-(1-oxo-5-(((1S,2S)-2-(3-(2-(trifluoromethyl)phenyl)azetidin-1-yl)cyclohexyl)oxy)isoindolin-2-yl)piperidine-2,6-dione], for which the 50% effective concentration (EC50) in test [1] worked out at 17 nM. Further, in the test on IKZF2 (Helios), the “IKZF2 % Degradation @ 1 μM” value is reported as 83.8%.

On to `O=C(O)CC(O)(CC(=O)O)C(=O)O.O=C1CCC(N2Cc3cc(O[C@H]4CCCC[C@@H]4N4CC(c5ccccc5)C4)ccc3C2=O)C(=O)N1` (stereo partly drawn) [Compound 130, 3-(1-oxo-5-(((1S,2S)-2-(3-phenylazetidin-1-yl)cyclohexyl)oxy)isoindolin-2-yl)piperidine-2,6-dione 2-hydroxypropane-1,2,3-tricarboxylate], for which the EC50 in test [1] was found to be 4 nM. Further, in the test on IKZF2 (Helios), the “IKZF2 % Degradation @ 1 μM” value was 84.8%.

A word on the EC50: it is the concentration needed to bring the measured effect to its halfway point.
